From ChEMBL document CHEMBL1147414, “Synthesis of galactopyranosyl amino alcohols as a new class of antitubercular and antifungal agents” (2004)
Converted amounts (≈) assume the structure as drawn.

Tests used:
Aspergillus fumigatus = test: Minimum inhibitory concentration against Aspergillus fumigatus; format: functional
Candida parapsilosis = test: Minimum inhibitory concentration against Candida parapsilosis; format: functional; conditions: Lodderomyces parapsilosis
Cryptococcus neoformans = test: Minimum inhibitory concentration against Cryptococcus neoformans; format: functional
[1] = tested on: Mycobacterium tuberculosis; test: Minimum inhibitory concentration against Mycobacterium tuberculosis; format: functional
[2] = tested on: Mycobacterium tuberculosis; test: In vito growth of Mycobacterium tuberculosis BC-248 strain after 6 weeks; + indicates 1-20 colonies; format: functional, organism-based
Trichophyton benhamiae = test: Minimum inhibitory concentration against Trichophyton mentagrophytes; format: functional, Arthroderma benhamiae
Candida albicans = test: Minimum inhibitory concentration against Candida albicans; format: functional
Sporothrix schenckii = test: Minimum inhibitory concentration against Sporothrix schenckii
[3] = tested on: Mycobacterium tuberculosis; test: In vito growth of Mycobacterium tuberculosis BC-437 strain after 6 weeks; - indicates no growth; format: functional, organism-based
[4] = tested on: Mycobacterium tuberculosis; test: In vito growth of Mycobacterium tuberculosis VA-101 strain after 6 weeks; […] colonies; format: functional, organism-based
[5] = tested on: Mycobacterium tuberculosis; test: In vito growth of Mycobacterium tuberculosis BC-243 strain after 6 weeks; - indicates no growth; format: functional, organism-based
[6] = tested on: Mycobacterium tuberculosis; test: In vito growth of Mycobacterium tuberculosis BC-248 strain after 6 weeks; - indicates no growth; format: functional, organism-based
[7] = tested on: Mycobacterium tuberculosis; test: In vito growth of Mycobacterium tuberculosis BC-426 strain after 6 weeks; - indicates no growth; format: functional, organism-based

Structure (SMILES) | MIC (Aspergillus fumigatus) [µg/mL] | MIC (Candida parapsilosis) [µg/mL] | MIC (Cryptococcus neoformans) [µg/mL] | MIC [1] [µg/mL] | Growth [2] | MIC (Trichophyton benhamiae) [µg/mL] | MIC (Candida albicans) [µg/mL] | MIC (Sporothrix schenckii) [µg/mL] | Growth [3] | Growth [4] | Growth [5] | Growth [6] | Growth [7]
CC1(C)O[C@@H]2OC(COCC(O)CNCCCCCCCCCCCCNCC(O)COCC3O[C@@H]4OC(C)(C)O[C@@H]4[C@H]4OC(C)(C)O[C@@H]34)[C@H]3OC(C)(C)O[C@H]3[C@@H]2O1 (stereo partly specified) | > 50 | > 50 | 12.5 (≈ 15 µM) | 1.56 (≈ 1.87 µM) | 1-20 colonies | 50 (≈ 60 µM) | > 50 | > 50 | – | – | – | – | –
CC1(C)O[C@H]2OC(COCC(O)CN3CCN(c4cccc(Cl)n4)CC3)[C@@H]3OC(C)(C)O[C@@H]3[C@H]2O1 (stereo partly specified) | > 50 | > 50 | 12.5 (≈ 24.3 µM) | > 50 | – | 25 (≈ 48.6 µM) | > 50 | > 50 | – | – | – | – | –
CC[C@@H](CO)NCCN[C@@H](CC)CO [ETHAMBUTOL] | – | – | – | 3.25 (≈ 15.9 µM) | – | – | – | – | – | – | – | – | –
CC1(C)O[C@@H]2OC(COCC(O)CNCCCNCC(O)COCC3O[C@@H]4OC(C)(C)O[C@@H]4[C@H]4OC(C)(C)O[C@@H]34)[C@H]3OC(C)(C)O[C@H]3[C@@H]2O1 (stereo partly specified) | > 50 | > 50 | 25 (≈ 35.4 µM) | > 50 | – | 50 (≈ 70.7 µM) | > 50 | > 50 | – | – | – | – | –
CC1(C)O[C@H]2OC(COCC(O)CNCc3ccco3)[C@@H]3OC(C)(C)O[C@@H]3[C@H]2O1 (stereo partly specified) | > 50 | > 50 | 25 (≈ 60.5 µM) | > 50 | – | 50 (≈ 121 µM) | > 50 | > 50 | – | – | – | – | –
CC1(C)O[C@@H]2OC(COCC(O)CNCCCCCCCCCNCC(O)COCC3O[C@@H]4OC(C)(C)O[C@@H]4[C@H]4OC(C)(C)O[C@@H]34)[C@H]3OC(C)(C)O[C@H]3[C@@H]2O1 (stereo partly specified) | > 50 | > 50 | 25 (≈ 31.6 µM) | > 50 | – | 50 (≈ 63.2 µM) | > 50 | > 50 | – | – | – | – | –
CC1(C)O[C@@H]2OC(COCC(O)CNCCCCCCCCCCNCC(O)COCC3O[C@@H]4OC(C)(C)O[C@@H]4[C@H]4OC(C)(C)O[C@@H]34)[C@H]3OC(C)(C)O[C@H]3[C@@H]2O1 (stereo partly specified) | > 50 | > 50 | 12.5 (≈ 15.5 µM) | > 50 | – | 50 (≈ 62.1 µM) | > 50 | > 50 | – | – | – | – | –
CCCCCCCCCCCCNCC(O)COCC1O[C@@H]2OC(C)(C)O[C@@H]2[C@H]2OC(C)(C)O[C@@H]12 (stereo partly specified) | 6.25 (≈ 12.5 µM) | 25 (≈ 49.8 µM) | 1.56 (≈ 3.11 µM) | 12.5 (≈ 24.9 µM) | – | 6.25 (≈ 12.5 µM) | 12.5 (≈ 24.9 µM) | 6.25 (≈ 12.5 µM) | – | – | – | – | –
CC1(C)O[C@@H]2OC(COCC(O)CNCCCCCCCNCC(O)COCC3O[C@@H]4OC(C)(C)O[C@@H]4[C@H]4OC(C)(C)O[C@@H]34)[C@H]3OC(C)(C)O[C@H]3[C@@H]2O1 (stereo partly specified) | > 50 | > 50 | 50 (≈ 65.5 µM) | > 50 | – | 50 (≈ 65.5 µM) | > 50 | > 50 | – | – | – | – | –
CC(=O)N1CCN(c2ccc(OC[C@H]3CO[C@](Cn4ccnc4)(c4ccc(Cl)cc4Cl)O3)cc2)CC1 [KETOCONAZOLE] | 0.25 (≈ 0.47 µM) | 0.12 (≈ 0.226 µM) | 0.12 (≈ 0.226 µM) | – | – | 0.25 (≈ 0.47 µM) | 0.001 (≈ 0.00188 µM) | 0.5 (≈ 0.941 µM) | – | – | – | – | –
CC1(C)O[C@H]2OC(COCC(O)CN3CCOCC3)[C@@H]3OC(C)(C)O[C@@H]3[C@H]2O1 (stereo partly specified) | > 50 | > 50 | 25 (≈ 62 µM) | > 50 | – | 50 (≈ 124 µM) | > 50 | > 50 | – | – | – | – | –
CC1(C)O[C@H]2OC(COCC(O)CN3CCCCC3)[C@@H]3OC(C)(C)O[C@@H]3[C@H]2O1 (stereo partly specified) | > 50 | > 50 | 25 (≈ 62.3 µM) | > 50 | – | 50 (≈ 125 µM) | > 50 | > 50 | – | – | – | – | –
CC1(C)O[C@H]2OC(COCC(O)CN3CCCC3)[C@@H]3OC(C)(C)O[C@@H]3[C@H]2O1 (stereo partly specified) | > 50 | > 50 | 25 (≈ 64.5 µM) | > 50 | – | 50 (≈ 129 µM) | > 50 | > 50 | – | – | – | – | –
CC1(C)O[C@H]2OC(COCC(O)CNCc3ccccc3)[C@@H]3OC(C)(C)O[C@@H]3[C@H]2O1 (stereo partly specified) | > 50 | > 50 | 25 (≈ 59 µM) | > 50 | – | 50 (≈ 118 µM) | > 50 | > 50 | – | – | – | – | –
CCCCCCCCCCCCCCCCNCC(O)COCC1O[C@@H]2OC(C)(C)O[C@@H]2[C@H]2OC(C)(C)O[C@@H]12 (stereo partly specified) | 25 (≈ 44.8 µM) | 25 (≈ 44.8 µM) | 6.25 (≈ 11.2 µM) | 12.5 (≈ 22.4 µM) | – | 12.5 (≈ 22.4 µM) | 25 (≈ 44.8 µM) | 25 (≈ 44.8 µM) | – | – | – | – | –
CCCCCCCC/C=C/CCCCCCCCNCC(O)COCC1O[C@@H]2OC(C)(C)O[C@@H]2[C@H]2OC(C)(C)O[C@@H]12 (stereo partly specified) | 50 (≈ 85.6 µM) | > 50 | 6.25 (≈ 10.7 µM) | 12.5 (≈ 21.4 µM) | – | 25 (≈ 42.8 µM) | 50 (≈ 85.6 µM) | 50 (≈ 85.6 µM) | – | – | – | – | –
C[C@@H]1CN(c2c(F)c(N)c3c(=O)c(C(=O)O)cn(C4CC4)c3c2F)C[C@H](C)N1 | – | – | – | – | – | – | – | – | No growth | 1-20 colonies | No growth | No growth | No growth
